Entries after “also recorded” stand apart in the source; their conditions may differ.
How the values were obtained:
C57BL/6 mice [1] = assay: Anti-drug antibody (serum IgG titer) response to adalimumab and conjugates in mice; assay type: in vivo, mouse
Protocol: To evaluate the production of antibodies specific to adalimumab and/or adalimumab-Siglec Ligand conjugates, C57BL/6 mice were immunized through intravenous injection with adalimumab or Siglec Ligand-conjugated adalimumab. On study day −1, animals were randomized into treatment groups based on body weight. On study day 0, animals were bled for baseline serum and then injected IV with adalimumab or the adalimumab-Siglec Ligand conjugates. The individual antigens were prepared by making a 0.8 mg/ml antigen solution in sterile buffered saline. Animals were then injected with 0.1 ml (^˜4 ml/kg) of the 0.8 mg/ml antigen via the tail vein. The total dose based on a 20 g mouse would be 4 mg/kg. Animals were bled via the retro-orbital sinus weekly throughout the study under inhaled isoflurane anesthesia. On study day, 28 animals were anesthetized with inhaled isoflurane anesthesia and then bled via cardiac puncture and then sacrificed by cervical dislocation. […]
ADA assays were performed on 96-well assay plates (Nunc Plates, Black 96-Well Immuno Plates, Thermo Scientific, 437111) coated with antigen, as follows. […] The excitation and emission settings for the QuantaBlu Fluorogenic Peroxide Substrates are 325 nm and 420 nm and the relative florescence units were measured using a SpectraMax plate reader. […] Titers were determined by the dilution of serum that gives a 2× OD above background. […]

Human TNFα = Human TNFα (Homo sapiens, UniProt P01375); assay: TNFα - Adalimumab/Adalimumab-Siglec Ligand Conjugate SPR Binding Assays; settings: TNFα analyte, test article on Protein A chip, 1:1 binding model
Protocol: Binding experiments of Adalimumab Conjugates were performed on a Biacore 8K+ using a Cytiva Protein A Chip Series S (Cat #29127555). Briefly, conjugates were diluted in running buffer (HBS-EP+) and scouted for a concentration yielding about 30 RU of response after 20 seconds of injection at 30 μL/min on the active surface (flow cell 2). Human TNFα was serially diluted in running buffer 1:1 from 100 nM to 0.1953 nM and then injected across both the reference (flow cell 1) and active surface (flow cell 2) for 120 seconds at 30 μL/min and allowed to dissociate for 600 s. […] Sensorgrams were fitted to a 1:1 binding model in Biacore Insight Evaluation Software Version 3.0.11.15423.

C57BL/6 mice [2] = assay: Serum IgG response to hen egg white lysozyme (HEL) in mice; assay type: in vivo, mouse; settings: Example 20: 4 weekly 200 μg i.v. doses (days 0, 7, 14, and 21), day 27
Protocol: On study day −1, animals were randomized into treatment groups based on body weight. On study day 0, animals were bled for baseline serum and then injected IV with adalimumab, adalimumab-Siglec Ligand conjugate, or PBS vehicle. The individual adalimumab-based antigens were prepared by making a 0.8 mg/ml antigen solution in sterile buffered saline. Animals were then injected with 0.1 ml (^˜4 ml/kg) of the 0.8 mg/ml antigen via the tail vein. The total dose based on a 20 g mouse would be 4 mg/kg. Mice were subsequently administered 200 μg HEL on days 7, 14, and 21. Whole blood was collected into Microvette EDTA capillary collection tubes (Sarstedt Inc) and then further processed following the manufacturer's instructions for serum collection. Samples were stored at −80 C until analysis was performed.
ADA assays were performed on 96-well assay plates (Nunc Plates, Black 96-Well Immuno Plates, Thermo Scientific, 437111) coated with antigen as follows. […] The excitation and emission settings for the QuantaBlu Fluorogenic Peroxide Substrates are 325 nm and 420 nm and the relative florescence units were measured using a SpectraMax plate reader. […] Titers were determined by the dilution of serum that gives a 2× OD above background.
On study day −1, animals were randomized into treatment groups based on body weight. […] Serum IgG levels against HEL/HEL conjugate were measured at day 27. […]

Sequence of Human TNFα (P01375 77-233 limits assumed): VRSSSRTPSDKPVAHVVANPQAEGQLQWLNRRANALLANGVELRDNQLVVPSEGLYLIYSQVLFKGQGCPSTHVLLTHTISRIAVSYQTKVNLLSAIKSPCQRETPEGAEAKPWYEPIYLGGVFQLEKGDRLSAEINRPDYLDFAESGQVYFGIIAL

Substance	anti-drug antibody response (mouse serum IgG titer against adalimumab/adalimumab conjugates) (C57BL/6 mice [1]; Example 14: single 4 mg/kg i.v. dose, days 14, 21, and 28, GAL and PEG linkers, listed as adalimumab hIgG1, 4 mg/kg)	IgG response against adalimumab/adalimumab conjugate (C57BL/6 mice [1]; Example 19: 4 mg/kg day 0, then weekly 200 μg HEL, day 28)	Kd (Human TNFα)	Rmax (RU) (Human TNFα)	ka (Human TNFα)	kd (Human TNFα)	IgG response to HEL/HEL conjugate (immunogenicity) (C57BL/6 mice [2])
Adalimumab	highly immunogenic in mice; also recorded: high mouse IgG serum titers	strong IgG response	1.46 nM	10.6 RU	245000 M⁻¹ s⁻¹	0.000357 s⁻¹	–
HEL: hen egg white lysozyme (Sigma, L4919-1G), standard immunogen [reference compound]	–	–	–	–	–	–	vigorous IgG responses to HEL
Siglec Ligand-HEL conjugates: hen egg white lysozyme conjugated with monovalent BPC-Neu5Gc PEG ligand-linker, LDR of 1.6	–	–	–	–	–	–	completely suppressed for immunogenicity

From patent US20240238422A1 (Osprey Biopharmaceuticals, Inc., priority 2021, published 2024)
